US20250179066A1, “ZWITTERIONIC ANTIBACTERIAL COMPOUNDS” (Hoffmann-La Roche Inc., priority 2022, published 2025)
Counter-ions that a name gives are not always drawn.

Each molecule was assayed on Acinetobacter baumannii ATCC17961 (assay: Antimicrobial susceptibility testing: 90% growth inhibitory concentration (IC90) determination). Conditions: 90% growth inhibitory concentration against Acinetobacter baumannii ATCC17961, Iso-Sensitest broth, OD 600 nm over 16 h; read-out: ATCC 17961 IC90.
Format: cell-based
Method in brief: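 Twofold serial dilutions (e.g. 10 to 0.0195 μM final) in Iso-Sensitest broth inoculated at ~5×10^5 CFU/mL, incubated at 35±2° C. OD600 read every minute for 16 h; IC90 is the concentration inhibiting 90% of growth during logarithmic phase.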
For `Cn1c(-c2cn(-c3ccc(NCCN)cn3)nc2C(F)(F)F)cnc1C(=O)Nc1ccc(C(=O)N2CCN(C(=O)[C@H]3CC[N@+](CC(=O)O)(CC4CNC4)CC3)CC2)c(Cl)c1` [Example 73, cis-2-[4-[4-[4-[[5-[1-[5-(2-aminoethylamino)-2-pyridyl]-3-(trifluoromethyl)pyrazol-4-yl]-1-methyl-imidazole-2-carbonyl]amino]-2-chloro-benzoyl]piperazine-1-carbonyl]-1-(azetidin-3-ylmethyl)piperidin-1-ium-1-yl]acetic acid; formic acid; formate], the IC90 was 870 nM.

Same assay, conditions: Acinetobacter baumannii, ATCC17961, 16 h, 90% growth inhibitory concentration against Acinetobacter baumannii ATCC17961, Iso-Sensitest broth, OD 600 nm over 16 h; read-out: ATCC 17961 IC90
Work on `Cc1cc(NC(=O)c2ncc(-c3cn(-c4ccc5[nH]c(CCO)cc5n4)nc3C(F)(F)F)n2C)ccc1C(=O)N1CCN(C(=O)[C@H]2CC[N@@+](CCCN)(CC(=O)O)CC2)CC1` [Example 127, cis-2-[1-(3-aminopropyl)-4-[4-[4-[[5-[1-[2-(2-hydroxyethyl)-1H-pyrrolo[3,2-b]pyridin-5-yl]-3-(trifluoromethyl)pyrazol-4-yl]-1-methyl-imidazole-2-carbonyl]amino]-2-methyl-benzoyl]piperazine-1-carbonyl]piperidin-1-ium-1-yl]acetic acid. 1:1 2,2,2-trifluoroacetate] yielded an IC90 of 364 nM. `Cn1c(-c2cn(-c3cc4[nH]cc(CCO)c4cn3)nc2C(F)(F)F)cnc1C(=O)Nc1ccc(C(=O)N2CCN(C(=O)[C@H]3CC[N@+](CC(=O)O)(CC4CNC4)CC3)CC2)c(Cl)c1` [Example 194, cis-2-[1-(azetidin-3-ylmethyl)-4-[4-[2-chloro-4-[[5-[1-[3-(2-hydroxyethyl)-1H-pyrrolo[3,2-c]pyridin-6-yl]-3-(trifluoromethyl)pyrazol-4-yl]-1-methyl-imidazole-2-carbonyl]amino]benzoyl]piperazine-1-carbonyl]piperidin-1-ium-1-yl]acetic acid. 1:1 2,2,2-trifluoroacetate] gave an IC90 of 168 nM. For `Cn1c(-c2cn(-c3ccc(N)cn3)nc2C(F)(F)F)cnc1C(=O)Nc1ccc(C(=O)N2CCN(C(=O)[C@H]3CC[N@@+](CCCN)(CC(=O)O)CC3)CC2)c(Cl)c1` [Example 32, cis-2-[1-(3-aminopropyl)-4-[4-[4-[[5-[1-(5-amino-2-pyridyl)-3-(trifluoromethyl)pyrazol-4-yl]-1-methyl-imidazole-2-carbonyl]amino]-2-chloro-benzoyl]piperazine-1-carbonyl]piperidin-1-ium-1-yl]acetic acid. 1:1 2,2,2-trifluoroacetate], the IC90 was 370 nM. `Cn1c(-c2cn(-c3ccc(C#N)cn3)nc2C(F)(F)F)cnc1C(=O)Nc1ccc(C(=O)N2CCN(C(=O)C3CC[N+](CC(=O)O)(CC4CNC4)CC3)CC2)c(Cl)c1` (stereo not shown) [Example 76, 2-[1-(azetidin-3-ylmethyl)-4-[4-[2-chloro-4-[[5-[1-(5-cyano-2-pyridyl)-3-(trifluoromethyl)pyrazol-4-yl]-1-methyl-imidazole-2-carbonyl]amino]benzoyl]piperazine-1-carbonyl]piperidin-1-ium-1-yl]acetic acid. 1:1 formate] was tested, and the IC90 was 1030 nM. With `Cn1c(-c2cn(-c3cc4[nH]ncc4cn3)nc2C(F)(F)F)cnc1C(=O)Nc1ccc(C(=O)N2CCN(C(=O)[C@H]3CC[N@+](CC(=O)O)(CC4CNC4)CC3)CC2)c(Cl)c1` [Example 173, cis-2-[1-(azetidin-3-ylmethyl)-4-[4-[2-chloro-4-[[1-methyl-5-[1-(1H-pyrazolo[4,3-c]pyridin-6-yl)-3-(trifluoromethyl)pyrazol-4-yl]imidazole-2-carbonyl]amino]benzoyl]piperazine-1-carbonyl]piperidin-1-ium-1-yl]acetic acid. 1:1 2,2,2-trifluoroacetate] the IC90 was 352 nM. Work on `Cc1cc(NC(=O)c2ncc(-c3cn(-c4ccc(N)cc4F)nc3C(F)(F)F)n2C)ccc1C(=O)N1CCN(C(=O)[C@H]2CC[N@+](CC(=O)O)(CC3CNC3)CC2)CC1` [Example 152, cis-2-[4-[4-[4-[[5-[1-(4-amino-2-fluoro-phenyl)-3-(trifluoromethyl)pyrazol-4-yl]-1-methyl-imidazole-2-carbonyl]amino]-2-methyl-benzoyl]piperazine-1-carbonyl]-1-(azetidin-3-ylmethyl)piperidin-1-ium-1-yl]acetic acid. 1:1 2,2,2-trifluoroacetate] yielded an IC90 of 421 nM. `COc1ccc(-n2cc(-c3cnc(C(=O)Nc4ccc(C(=O)N5CCN(C(=O)C6CC[N+](CC(=O)O)(CC7CNC7)CC6)CC5)c(Cl)c4)n3C)c(C(F)(F)F)n2)nc1` (stereo not shown) [Example 22, 2-[1-(azetidin-3-ylmethyl)-4-[4-[2-chloro-4-[[5-[1-(5-methoxy-2-pyridyl)-3-(trifluoromethyl)pyrazol-4-yl]-1-methyl-imidazole-2-carbonyl]amino]benzoyl]piperazine-1-carbonyl]piperidin-1-ium-1-yl]acetic acid. 1:1 formate] gave an IC90 of 330 nM. `Cn1c(-c2cn(-c3ccc(NCCN(CCN)CCN)cn3)nc2C(F)(F)F)cnc1C(=O)Nc1ccc(C(=O)N2CCN(C(=O)C3CC[N+](CC(=O)O)(CC4CNC4)CC3)CC2)c(Cl)c1` (stereo not drawn) [Example 166, cis-2-[1-(azetidin-3-ylmethyl)-4-[4-[4-[[5-[1-[5-[2-[bis(2-aminoethyl)amino]ethylamino]-2-pyridyl]-3-(trifluoromethyl)pyrazol-4-yl]-1-methyl-imidazole-2-carbonyl]amino]-2-chloro-benzoyl]piperazine-1-carbonyl]piperidin-1-ium-1-yl]acetic acid;formic acid;formate] was tested, and the IC90 was 152 nM. `Cn1c(-c2cn(-c3ccc(N4CCNCC4)cn3)nc2C(F)(F)F)cnc1C(=O)Nc1ccc(C(=O)N2CCN(C(=O)C3CC[N+](CC(=O)O)(CC4CNC4)CC3)CC2)c(Cl)c1` (stereo not shown) [Example 3, 2-[1-(azetidin-3-ylmethyl)-4-[4-[2-chloro-4-[[1-methyl-5-[1-(5-piperazino-2-pyridyl)-3-(trifluoromethyl)pyrazol-4-yl]imidazole-2-carbonyl]amino]benzoyl]piperazine-1-carbonyl]piperidin-1-ium-1-yl]acetic acid. 1:1 2,2,2-trifluoroacetic acid. 1:1 2,2,2-trifluoroacetate] was tested, and the IC90 was 390 nM. Molecule `Cn1c(-c2cn(-c3cc4[nH]c(CO)cc4cn3)nc2C(F)(F)F)cnc1C(=O)Nc1ccc(C(=O)N2CCN(C(=O)[C@H]3CC[N@+](CC(=O)O)(CC4CNC4)CC3)CC2)c(Cl)c1` [Example 180, cis-2-[1-(azetidin-3-ylmethyl)-4-[4-[2-chloro-4-[[1-methyl-5-[1-(2-methylol-1H-pyrrolo[3,2-c]pyridin-6-yl)-3-(trifluoromethyl)pyrazol-4-yl]imidazole-2-carbonyl]amino]benzoyl]piperazine-1-carbonyl]piperidin-1-ium-1-yl]acetic acid. 1:1 2,2,2-trifluoroacetate] has an IC90 of 135 nM. `Cn1c(-c2cn(-c3ccc(NC[C@H]4COCCN4)cn3)nc2C(F)(F)F)cnc1C(=O)Nc1ccc(C(=O)N2CCN(C(=O)C3CC[N+](CC(=O)O)(CC4CNC4)CC3)CC2)c(Cl)c1` (stereo partly drawn) [Example 47, 2-[1-(azetidin-3-ylmethyl)-4-[4-[2-chloro-4-[[1-methyl-5-[1-[5-[[(3S)-morpholin-3-yl]methylamino]-2-pyridyl]-3-(trifluoromethyl)pyrazol-4-yl]imidazole-2-carbonyl]amino]benzoyl]piperazine-1-carbonyl]piperidin-1-ium-1-yl]acetic acid. 1:1 2,2,2-trifluoroacetic acid. 1:1 2,2,2-trifluoroacetate] was tested, and the IC90 was 500 nM. `Cn1c(-c2cn(-c3ccc(N)cn3)nc2C(F)(F)F)cnc1C(=O)Nc1ccc(C(=O)N2CCN(C(=O)[C@H](N)CC(=O)O)CC2)c(Cl)c1` [Example 85, (3R)-3-amino-4-[4-[4-[[5-[1-(5-amino-2-pyridyl)-3-(trifluoromethyl)pyrazol-4-yl]-1-methyl-imidazole-2-carbonyl]amino]-2-chloro-benzoyl]piperazino]-4-keto-butyric acid. 1:1 2,2,2-trifluoroacetic acid] was tested, and the IC90 was 1360 nM. `CNc1ccc(-n2cc(-c3cnc(C(=O)Nc4ccc(C(=O)N5CCN(C(=O)C6CC[N+](CC(=O)O)(CC7CNC7)CC6)CC5)c(Cl)c4)n3C)c(C(F)(F)F)n2)cn1` (stereo not shown) [Example 68, 2-[1-(azetidin-3-ylmethyl)-4-[4-[2-chloro-4-[[1-methyl-5-[1-[6-(methylamino)-3-pyridyl]-3-(trifluoromethyl)pyrazol-4-yl]imidazole-2-carbonyl]amino]benzoyl]piperazine-1-carbonyl]piperidin-1-ium-1-yl]acetic acid. 1:1 2,2,2-trifluoroacetate] gave an IC90 of 760 nM. With `Cn1c(-c2cn(-c3ccc(NCCO)cn3)nc2C(F)(F)F)cnc1C(=O)Nc1ccc(C(=O)N2CCN(C(=O)[C@H]3CC[N@+](CC(=O)O)(CC4CNC4)CC3)CC2)c(Cl)c1` [Example 38, cis-2-[1-(azetidin-3-ylmethyl)-4-[4-[2-chloro-4-[[5-[1-[5-(2-hydroxyethylamino)-2-pyridyl]-3-(trifluoromethyl)pyrazol-4-yl]-1-methyl-imidazole-2-carbonyl]amino]benzoyl]piperazine-1-carbonyl]piperidin-1-ium-1-yl]acetic acid; formate] the IC90 was 430 nM. In the case of `Cn1c(-c2cn(-c3ccc(N)cn3)nc2C(F)(F)F)cnc1C(=O)Nc1ccc(C(=O)N2CCN(C(=O)[C@H]3CC[N@@+](CC(=O)O)(CC4CNC4)CC3)CC2)c(Cl)c1` [Example 64, trans-2-[4-[4-[4-[[5-[1-(5-amino-2-pyridyl)-3-(trifluoromethyl)pyrazol-4-yl]-1-methyl-imidazole-2-carbonyl]amino]-2-chloro-benzoyl]piperazine-1-carbonyl]-1-(azetidin-3-ylmethyl)piperidin-1-ium-1-yl]acetic acid. 1:1 2,2,2-trifluoroacetic acid. 1:1 2,2,2-trifluoroacetate], the IC90 is reported as 680 nM.
